Where a name gives a salt, the structure may show the parent alone. Read-outs that look alike come from different tables or passages of the source.

In series [1] the test system is POS1 osteosarcoma cell line. Kind of series: viability/cytotoxicity test on osteosarcoma line POS1. It counts as cell-based. The note with it: mouse osteosarcoma cell line. The method, then: (§1) The biological activities (viability/cytotoxicity test) of the molecules (III) and (IV) were tested in vitro on cultures of human, murine and rat osteosarcoma lines in comparison with normal cells (healthy osteoblasts from mouse calvaria).

Series [2] relates to OSRGA osteosarcoma cell line. As to the kind of experiment: viability/cytotoxicity test on osteosarcoma line OSRGA. The note with it: rat osteosarcoma cell line. The class given is cell-based. The protocol:
as §1

The subject of series [3] is MG63 osteosarcoma cell line. Kind of series: viability/cytotoxicity test on osteosarcoma line MG63. It counts as cell-based. The following applies: MG-63; human osteosarcoma cell line. The method, then:
as §1

Series [4] concerns POS-1 mouse osteosarcoma. As to the kind of experiment: cells. The note with it: 72 h. It counts as cell-based.
The next series deals with murine fibroblast L929. As to the kind of experiment: cells. It counts as cell-based. The note with it: Mus musculus, L929, 72 h.
The subject of a further series is mice (Swiss strain). Kind of series: in vivo bone tropism test in young mice, 4 weeks of treatment. The note with it: 0.35 μmol/kg sub-cutaneously twice a week; for specific bone volume BV/TV, left femur / specific bone volume BV/TV, average of left and right femur / specific bone volume BV/TV, right femur: 4 weeks; for specific bone volume BV/TV, left femur: control 56.58%; for specific bone volume BV/TV, average of left and right femur: control 62.89%; for specific bone volume BV/TV, right femur: control 69.20%.

Series [5] deals with Mouse osteosarcoma POS1 cells. As to the kind of experiment: in vivo osteolytic primitive bone tumor model, POS1 tumor fragments transplanted into para-osteal site. The following applies: treated versus untreated (control) mice; FIG. 3. The method, then: Mouse osteosarcoma POS1 cells were injected in the pad of a 5-week old male mouse of the C3H/HeN strain. Fragments of the tumor which develops on this site are then transplanted into a para-osteal site in order to induce development of an osteolytic primitive bone tumor. The molecule (IV) was then injected as a cure of […] injections (IP) of 11.5 or 115 μmol/kg at 24 hr intervals from the 7th day (D7) after tumoral induction.

Series [6] has as its system POS-1 mouse osteosarcoma. The following applies: in vivo.
The subject of another series is mice. Kind of series: administration of the fluorescent molecule in mice. The following applies: mouse, in vivo.
Another series concerns different cell lines. Kind of series: in vitro cytotoxicity of the fluorescent molecule. It counts as cell-based.

As usually defined, the IC50 is the midpoint of a concentration-inhibition curve. With `CN(CCCOc1cccc(COP(N)(=O)N(CCCl)CCCl)c1)CCC(O)(P(=O)(O)O)P(=O)(O)O` (centres unmarked) [Molecule (III), 3-((3-(3-((amino(bis(2-chloroethyl)amino)phosphoryloxy)methyl)phenoxy)propyl)(methyl)amino)-1-hydroxypropane-1,1-diyl-diphosphonic acid], the IC50 in series [1], in series [2] and in [3] was > 200 µM throughout.

As for `CN(CCCOc1cccc(COP(N)(=O)N(CCCl)CCCl)c1)CCC(=O)OC(C)(C)C` (centres unmarked) [Molecule 3], the IC50 with POS-1 mouse osteosarcoma [4] (read-out: IC50 POS-1 (DMSO)) is 280 µM; in the series with POS-1 mouse osteosarcoma [4] (read-out: IC50 POS-1 (ethanol)) it was 500 µM; with murine fibroblast L929 (read-out: IC50 L929 (DMSO)) it was 500 µM; with murine fibroblast L929 (read-out: IC50 L929 (ethanol)), > 500 µM.

Take `O=P(O)(O)C(O)(Cn1ccnc1)P(=O)(O)O` [Disodium salt of zoledronic acid, zoledronic acid, reference compound]: in the series with mice (Swiss strain), the “specific bone volume BV/TV, left femur” value worked out at 72.72%; the “specific bone volume BV/TV, average of left and right femur” value is on record as 74.02%; the “specific bone volume BV/TV, right femur” value is reported as 75.33%. Further, the “weight follow-up and general condition of the mice” value with mice (Swiss strain) (after 4 weeks) is given as “no incidence on the weight follow-up, nor on the general condition”.

As to `CN(CCCOc1cccc(COCCOP(N)(=O)N(CCCl)CCCl)c1)CCC(O)(P(=O)(O)O)P(=O)(O)O` (centres unmarked) [Molecule (IV), {3-[(3-{3-[6-amino-9-chloro-7-(2-chloroethyl)-6-oxido-2,5-dioxa-7-aza-6-phosphanon-1-yl]phenoxy}propyl)(methyl)amino]-1-hydroxypropane-1,1-diyl}biphosphonic acid], the half-maximal inhibitory concentration (IC50) in series [1], in series [2] and in series [3] was > 500 µM in each case. Moreover, the “bone mineral density in the epiphyseal area (radiographs)” value in series [5] is given as “increase in the bone mineral density”.

`NP(=O)(OCc1cccc(OCCCBr)c1)N(CCCl)CCCl` (centres unmarked) [Molecule 2]: the survival rate entry in the series on POS-1 mouse osteosarcoma [6] is “significant increase”. Moreover, the IC50 is 200 µM with POS-1 mouse osteosarcoma [4] (read-out: IC50 POS-1 (DMSO)), 300 µM with POS-1 mouse osteosarcoma [4] (read-out: IC50 POS-1 (ethanol)), > 500 µM in the series on murine fibroblast L929 (read-out: IC50 L929 (DMSO)) and 250 µM in the series with murine fibroblast L929 (read-out: IC50 L929 (ethanol)).

For `CN(CCCOc1cccc(CN(C)S(=O)(=O)c2cccc3c(N(C)C)cccc23)c1)CCC(O)(P(=O)(O)O)P(=O)(O)O` [Molecule (II), 3-((3-(3-((5-dimethylamino)-N-methylnaphthalene-1-sulfonamido)methyl)phenoxy)propyl(methyl)amino)-1-hydropropane-1,1-diyldiphosphonic acid], the “cytotoxic activity after administration in mice” value in the series with mice is listed as “did not either reveal any cytotoxic activity”. In addition, the “cytotoxic activity in vitro” value with different cell lines is “did not have any cytotoxic activity”.

For the compound `CN(CCCOc1ccccc1)CCC(O)(P(=O)(O)O)P(=O)(O)O` [Molecule 4], in the series with mice (Swiss strain), the “specific bone volume BV/TV, left femur” value was determined as 73.69%; the “specific bone volume BV/TV, average of left and right femur” value worked out at 73.88%; the “specific bone volume BV/TV, right femur” value was 74.08%. In the series with mice (Swiss strain) (after 4 weeks, versus control mice, FIG. 2), the “mineral density on radiographs” value was “increase in the mineral density”.

Source of the values: patent publication US8361993B2, “Hydroxy-bisphosphonic acid derivatives as vector targeting bone tissue” (Universite de Nantes, priority 2008, dated 2013).
